Read-outs that look alike come from different tables or passages of the source.
Key:
[1] = test system: Male hairless mice (Hos: HR-1)
Excerpt: (§1) Male hairless mice (Hos: HR-1, six-week old, Hoshino Laboratory Animals, Inc.) were employed and subjected to a partly modified method by Schwarz et al. (Haratake A. et al. J. Invest. Dermatol. 108:769-775, 1997.) in accordance with the repetitive UV-B irradiation method (Naganuma M. et al. J. Dermatol. Sci. 25:29-35, 2001. Schwartz E. J. Invest. Dermatol. 91:158-161, 1988.) whereby forming wrinkles. Thus, the dorsal region was irradiated with UV-B (light source: Toshiba FL-20 SE fluorescent lamp manufactured by Toshiba Electric) three times a week for 12 weeks. […] The total irradiation dose was 4.482 J/cm^2. The UV dose measured using UVRADIOMETER (UVR-305/365D (II), Topcon Corporation) was employed as a readout. During the UV-B irradiation, 10 mM D-methionine was given via a water supplier bottle. As a control, a tap water was given in the same manner. The water supplier bottle was exchanged once a week.
After the end of the UV irradiation, the skin thickness was measured using a thickness gauge (Mitsutoyo Corporation, PK-1012SU). The measured value of the skin thickness was designated as “skin thickness×2”, since the measurement was conducted by pinching the skin with the thickness gauge.

[2] = test system: human neonatal dermal fibroblast (Cryo NHDF-Neo); assay: cells; conditions: for effect of pre-irradiation addition on viable cells and cell death (in words): pre-irradiation addition 0.001 to 100 μM, UV-A 9 J/cm^2
Protocol: The ultraviolet irradiation after switching into a medium added with 0.1 μM (micro-molar) D-proline was employed as a positive control, while the ultraviolet irradiation to the medium still being free of such an added amino acid was employed as a negative control.
(degrees Celsius) for 40 hours.

[3] = test system: human neonatal dermal fibroblast (Cryo NHDF-Neo); assay: Ultraviolet irradiation-induced damage test in cultured cell, post-irradiation addition (Alamar Blue); conditions: UV-A 8 J/cm^2
Protocol: The cell employed was a commercially available human neonatal dermal fibroblast (Cryo NHDF-Neo, Sanko-Junyaku Co., Ltd.). This cell was inoculated at 2×10^5 cells/mL to a commercially available culture dish of 35 mm in diameter (BD FALCON 353001, Becton Dickinson Japan), where it was cultured in a commercially available cell culture medium (D-MEM (1 g/L glucose, Wako Pure Chemical Industries, Ltd.) supplemented with 10% fetal bovine serum and 1% antibiotic (15240-062, GIBCO) (hereinafter, referred to as “ordinary medium”). This cell was cultured for about 24 hours in a 5% CO2 and saturated water vapor atmosphere at 37° C. (degrees Celsius).
Thereafter, the culture medium for culturing the cell described above was switched to 1 mL of a BSO medium supplemented with a glutathione biosynthesis inhibitor BSO (L-buthionine-(S,R)-sulfoximine, Wako Pure Chemical Industries, Ltd.) at 1×10^−3%, where the culture was conducted for about 24 hours in a 5% CO2 and saturated water vapor atmosphere at 37° C. […] The BSO medium described above was prepared by a 200-fold dilution of a stock solution containing 0.2% BSO dissolved in ethyl alcohol with the ordinary medium described above.
Ferric chloride (II) was dissolved in a distilled water at 2×10^−3%, and the resultant solution was subjected to a 200-fold dilution (final concentration: 1×10^−5%) with a phosphate buffer solution PBS (+) containing calcium ion and magnesium ion to obtain a medium (hereinafter, referred to as “UV irradiation medium”), which was warmed preliminarily to 37° C. before use.
Before UV-A irradiation, the culture medium was replaced with 1 mL of the UV irradiation medium described above. […] The UV dose was measured using UV RADIOMETER UVR-3036/S (Topcon Corporation).
After the ultraviolet irradiation, the medium was switched back to the ordinary medium described above, and the culture was conducted in a 5% CO2 and saturated water vapor atmosphere at 37° C.
Thereafter, the culture medium was supplemented with Alamar Blue (trade mark, Invitrogen) at a final concentration of 10%, and its supernatant was determined for the fluorescent intensity three hours later with an excitation wavelength of 544 nm and a fluorescent wavelength of 590 nm as described by Ahmed S. A. et al. (J. Immunol. Method. 170, 211-224 (1994)) and in accordance with the manufacture's instruction.

[4] = test system: Male hairless mice (Hos: HR-1); conditions: Example 3, 10 mM in drinking water; for effect on UV-B-induced wrinkling (in words): P=0.55% in Mann-Whitney U test; for number of animals of each wrinkle score after the UV-B irradiation: UV(+) control: one scored 5, two 6, two 7, three 8
Excerpt: as §1
After the irradiation to the mice described above, the dorsal regions of the mice were photographed, and a partly modified method by Bissett et al. (Bissett D L. et al. Photochemistry and Photobiology 46:367-378, 1987.) was employed to evaluate the degree of wrinkling in accordance with the criteria indicated in Table 1 below. The wrinkle evaluation was performed separately by four observers, who thereafter consulted together to determine a score about the wrinkle grade (hereinafter, simply referred to as “score”).
During the UV-B irradiation, 10 mM L- or D-methionine was given via a water supplier bottle. The UV irradiation and the wrinkling determination were conducted by the methods described in Example 2.

[5] = test system: Male hairless mice (Hos: HR-1); conditions: Example 2, 10 mM in drinking water
Excerpt: as §1
After the irradiation to the mice described above, the dorsal regions of the mice were photographed, and a partly modified method by Bissett et al. (Bissett D L. et al. Photochemistry and Photobiology 46:367-378, 1987.) was employed to evaluate the degree of wrinkling in accordance with the criteria indicated in Table 1 below. […]

[6] = Homo sapiens, Fibroblast, light or radiation study, read-out: percentage of the viable cell

| SMILES | measured value of the skin thickness (skin thickness×2) ([1]; 10 mM in drinking water during 12 weeks UV-B, total 4.482 J/cm^2, UV(−)/H20 0.81 mm, UV(+)/H20 1.25 mm) | effect on UV-B-induced skin thickening (in words) ([1]; 10 mM in drinking water, UV-B total 4.482 J/cm^2, Bonferroni/Dunn test) | viability at 0.01 µM [2, 6] | viability at 0.1 µM [2, 6] | viability at 1 µM [2, 6] | viability at 10 µM [2, 6] | viability at 100 µM [2, 6] | effect of pre-irradiation addition on viable cells and cell death (in words) [2] | percentage of the viable cell (positive control) ([3]; added at 0.1 μM, called positive control, negative control 64%) | effect of post-irradiation addition on viable cells and cell death (in words) ([3]; post-irradiation addition 0.01 to 100 μM) | percentage of the viable cell ([3]; post-irradiation addition at 0.01 μM, negative control 64%) | percentage of the viable cell ([3]; post-irradiation addition at 0.1 μM, negative control 64%) | percentage of the viable cell ([3]; post-irradiation addition at 1 μM, negative control 64%) | percentage of the viable cell ([3]; post-irradiation addition at 100 μM, negative control 64%) | effect on UV-B-induced wrinkling (in words) [4] | number of animals of each wrinkle score after the UV-B irradiation [4] | number of animals of each wrinkle score after the UV-B irradiation ([5]; UV-B total 4.482 J/cm^2, UV(+) control: 2 scored 4, two 5, one 6, one 7) | effect on UV-B-induced wrinkling (in words) ([5]; P=1.8% in Mann-Whitney U test) | viability at 0.001 µM [2, 6] |
| --- | --- | --- | --- | --- | --- | --- | --- | --- | --- | --- | --- | --- | --- | --- | --- | --- | --- | --- | --- |
| CSCC[C@@H](N)C(=O)O [D-methionine] | 1.00 mm | statistically significant reduction in this skin thickening | 102% | 81% | 97% | 114% | 76% | an increased percentage of the viable cell and a reduced cell death | 82% | an increased percentage of the viable cell and a reduced cell death | 93% | 84% | 82% | 87% | statistically significant reduction in this wrinkling | six animals scored 5 and two animals scored 6 | four animals scored 3, two animals scored 4 and one animal scored 5 | statistically significant reduction in this wrinkling | – |
| CSCC[C@H](N)C(=O)O [L-methionine] | – | – | 72% | 67% | 45% | 73% | 62% | an increased percentage of the viable cell and a reduced cell death | – | – | – | – | – | – | less effective in reducing the UV-B irradiation-induced wrinkling than D-methionine | one animal scored 4, two animals scored 5, two animals scored 6 and two animals scored 7 | – | – | 40% |
| O=C(O)[C@H]1CCCN1 [D-proline, reference compound] | – | – | – | 100% | – | – | – | – | – | – | – | – | – | – | – | – | – | – | – |
